In patent US20240041042A1, “1-(PYRIDYL)-5-AZINYLPYRAZOLE DERIVATIVES, AND THEIR USE FOR CONTROL OF UNDESIRED PLANT GROWTH” (Bayer Aktiengesellschaft, priority 2020, published 2024):
Where two headings read alike, the source gives them in different places.

Legend:
Format in all cases: in vivo
[1] = tested on: Alopecurus myosuroides (ALOMY); experiment: Pre-emergence herbicidal action against ALOMY; conditions: 320 g/ha; scored visually after about 3 weeks; 100% = plants have died
Outline: (§1)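 Dosages of 320 g/ha or less; pre-emergence; WP or EC in aqueous spray, 0.5% additive, 600 l/ha; greenhouse; visual % effect after ~3 wk relative to control pots.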

[2] = tested on: Amaranthus retroflexus (AMARE); experiment: Pre-emergence herbicidal action against AMARE; conditions: 320 g/ha, visual scoring after about 3 weeks vs untreated controls
Outline: as §1

[3] = tested on: Digitaria sanguinalis (DIGSA); experiment: Pre-emergence herbicidal action against DIGSA; conditions: dosage 320 g/ha
Outline: as §1

[4] = tested on: Echinochloa crus-galli (ECHCG); experiment: Pre-emergence herbicidal action against ECHCG; conditions: dosage 320 g/ha
Outline: as §1

[5] = tested on: Matricaria inodora (MATIN); experiment: Pre-emergence herbicidal action against MATIN; conditions: dosage 320 g/ha
Outline: as §1

[6] = tested on: Pharbitis purpurea (PHBPU); experiment: Pre-emergence herbicidal action against PHBPU; conditions: dosage 320 g/ha
Outline: as §1

[7] = tested on: Polygonum convolvulus (POLCO); experiment: Pre-emergence herbicidal action against POLCO
Outline: as §1

Viola tricolor (VIOTR) [8] = experiment: Pre-emergence herbicidal action against VIOTR
Outline: as §1

Glycine max (GLXMA) = conditions: pre-emergence, 80 g/ha, crop plant compatibility, in comparison to untreated controls
Outline: (§2)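 Crop injury rated visually in percent against untreated plants roughly 3 weeks after treatment (0% no effect, 100% plants dead). Compounds, as WP or EC with 0.5% additive in 600 l/ha water, were applied to the covering soil right after sowing; greenhouse growth. Suffixes a, b, c denote different dosages.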

[9] = tested on: Triticum aestivum (TRZAS); conditions: pre-emergence, crop plant compatibility, in comparison to untreated controls
Outline: as §2

[10] = tested on: Alopecurus myosuroides (ALOMY); experiment: Post-emergence herbicidal action against ALOMY; conditions: 320 g/ha, visual rating about 3 weeks after treatment vs untreated controls (100% = plants have died, 0% = like control plants)
Outline: (§3)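 Post-emergence greenhouse spray, one-leaf stage, 600 l/ha water plus 0.5% additive; WP or EC formulations; application rates 320 g/ha or lower. Visual % damage vs untreated controls at ~3 weeks.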

[11] = tested on: Echinochloa crus-galli (ECHCG); experiment: Post-emergence herbicidal action against ECHCG; conditions: dosage 320 g/ha
Outline: as §3

[12] = tested on: Matricaria inodora (MATIN); experiment: Post-emergence herbicidal action against MATIN; conditions: dosage 320 g/ha
Outline: as §3

[13] = tested on: Pharbitis purpurea (PHBPU); experiment: Post-emergence herbicidal action against PHBPU
Outline: as §3

[14] = tested on: Verconica persica (VERPE); experiment: Post-emergence herbicidal action against VERPE; conditions: 320 g/ha, VERPE
Outline: as §3

Viola tricolor (VIOTR) [15] = experiment: Post-emergence herbicidal action against VIOTR; conditions: 320 g/ha
Outline: as §3

Setaria viridis (SETVI) = experiment: Pre-emergence herbicidal action against SETVI; conditions: dosage 320 g/ha
Outline: as §1

Oryza sativa (ORYSA) [16] = conditions: pre-emergence, crop plant compatibility, in comparison to untreated controls
Outline: as §2

Zea mays (ZEAMX) [17] = conditions: pre-emergence, crop plant compatibility, in comparison to untreated controls
Outline: as §2

[18] = tested on: Amaranthus retroflexus (AMARE); experiment: Post-emergence herbicidal action against AMARE
Outline: as §3

Oryza sativa (ORYSA) [19] = conditions: crop plant compatibility
Outline: (§4)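 One-leaf-stage crops (2–3 wk post-sowing, sandy loam, greenhouse) sprayed on green parts; 0.5% additive, 600 l/ha water. Rated by eye ~3 wk later, % vs untreated; suffixes a/b/c mark different dosages.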

Zea mays (ZEAMX) [20] = conditions: for Post-emergence action against ZEAMX in %: crop plant compatibility, effect vs untreated controls; for Post-emergence action against ZEAMX in % (crop plant compatibility): 20 g/ha, effect in comparison to untreated controls
Outline: as §4

[21] = tested on: Triticum aestivum (TRZAS); conditions: crop plant compatibility, effect vs untreated controls
Outline: as §4

[22] = 80 g/ha, visual rating about 3 weeks after treatment vs untreated controls (100% = plants have died, 0% = like control plants)
[23] = 320 g/ha, visual rating about 3 weeks after treatment
[24] = 80 g/ha, effect in comparison to untreated controls
[25] = 320 g/ha, effect in comparison to untreated controls
[26] = 20 g/ha, effect vs untreated controls

Row | Pre-emergence action against GLXMA in % (Glycine max (GLXMA)) | Pre-emergence action against TRZAS in % ([9]; 80 g/ha) | Pre-emergence action against ORYSA in % (Oryza sativa (ORYSA) [16]; 80 g/ha) | Pre-emergence action against ORYSA in % (Oryza sativa (ORYSA) [16]; 320 g/ha) | Pre-emergence action against ZEAMX in % (Zea mays (ZEAMX) [17]; 80 g/ha) | Pre-emergence action against ZEAMX in % (Zea mays (ZEAMX) [17]; 320 g/ha) | Post-emergence action against ORYSA in % (Oryza sativa (ORYSA) [19]; [24]) | Post-emergence action against ORYSA in % (Oryza sativa (ORYSA) [19]; [25]) | Post-emergence action against ZEAMX in % (Zea mays (ZEAMX) [20]; 80 g/ha) | Post-emergence action against ZEAMX in % (Zea mays (ZEAMX) [20]; 320 g/ha) | Pre-emergence action against TRZAS in % ([9]; 320 g/ha) | Post-emergence action against ORYSA in % (Oryza sativa (ORYSA) [19]; [26]) | Post-emergence action against TRZAS in % ([21]; 20 g/ha) | Post-emergence action against TRZAS in % ([21]; 80 g/ha) | Post-emergence action against ZEAMX in % (crop plant compatibility) (Zea mays (ZEAMX) [20]) | SMILES | Pre-emergence action against AMARE in % [2] | Pre-emergence action against VIOTR in % (Viola tricolor (VIOTR) [8]; 320 g/ha, Viola tricolor) | Post-emergence action against VIOTR in % (Viola tricolor (VIOTR) [15]) | Post-emergence action against AMARE in % [18, 22] | Post-emergence action against AMARE in % [18, 23] | other results
1 | 0% | 20% | 0% | 20% | 10% | 20% | 0% | 0% | 10% | 10% |  |  |  |  |  | COC(=O)CCOC(=O)COc1nn(-c2ccnc(F)c2)c(-c2ccc(F)nc2)c1Br [III-27] |  |  | 80% | 80% | 80% | Pre-emergence action against SETVI in % (Setaria viridis (SETVI)): 90%
2 | 0% | 20% | 0% | 20% |  |  | 0% |  |  |  |  | 0% | 20% |  | 0% | COC(=O)CCOC(=O)COc1nn(-c2ccnc(Cl)c2)c(-c2ccc(F)nc2)c1Br [III-19] | 80% |  |  | 80% |  | Post-emergence action against PHBPU in % ([13]; dosage 80 g/ha): 80%

The remaining lines, values behind:

Row | SMILES | Pre-emergence action against GLXMA in % (Glycine max (GLXMA)) | Pre-emergence action against TRZAS in % ([9]; 80 g/ha) | Pre-emergence action against ORYSA in % (Oryza sativa (ORYSA) [16]; 80 g/ha) | Pre-emergence action against ORYSA in % (Oryza sativa (ORYSA) [16]; 320 g/ha) | Pre-emergence action against ZEAMX in % (Zea mays (ZEAMX) [17]; 80 g/ha) | Pre-emergence action against ZEAMX in % (Zea mays (ZEAMX) [17]; 320 g/ha) | Post-emergence action against ORYSA in % (Oryza sativa (ORYSA) [19]; [24]) | Post-emergence action against ORYSA in % (Oryza sativa (ORYSA) [19]; [25]) | Post-emergence action against ZEAMX in % (Zea mays (ZEAMX) [20]; 80 g/ha) | Post-emergence action against ZEAMX in % (Zea mays (ZEAMX) [20]; 320 g/ha) | Pre-emergence action against TRZAS in % ([9]; 320 g/ha) | Post-emergence action against ORYSA in % (Oryza sativa (ORYSA) [19]; [26]) | Post-emergence action against TRZAS in % ([21]; 20 g/ha) | Post-emergence action against TRZAS in % ([21]; 80 g/ha) | Post-emergence action against ZEAMX in % (crop plant compatibility) (Zea mays (ZEAMX) [20]) | Pre-emergence action against AMARE in % [2] | Pre-emergence action against VIOTR in % (Viola tricolor (VIOTR) [8]; 320 g/ha, Viola tricolor) | Post-emergence action against VIOTR in % (Viola tricolor (VIOTR) [15]) | Post-emergence action against AMARE in % [18, 22] | Post-emergence action against AMARE in % [18, 23] | other results
3 | COC(=O)COc1nn(-c2ncccc2C(F)(F)F)c(-c2cncc(F)c2)c1Br [Example I-206] | 10% | 0% |  |  |  |  |  |  |  |  |  |  |  |  |  | 90% | 100% | 80% |  |  | Pre-emergence action against ALOMY [1]: 80%; Pre-emergence action against DIGSA in % [3]: 90%; Pre-emergence action against ECHCG in % [4]: 80%; Pre-emergence action against MATIN in % [5]: 90%; Pre-emergence action against PHBPU in % [6]: 80%; Pre-emergence action against POLCO in % ([7]; dosage 80 g/ha): 80%; Pre-emergence action against POLCO in % ([7]; dosage 320 g/ha): 80%; Pre-emergence action against VIOTR in % (Viola tricolor (VIOTR) [8]; dosage 80 g/ha): 90%; Post-emergence action against ALOMY in % [10]: 80%; Post-emergence action against ECHCG in % [11]: 80%; Post-emergence action against MATIN in % [12]: 80%; Post-emergence action against PHBPU in % ([13]; dosage 320 g/ha): 90%; Post-emergence action against VERPE in % [14]: 80%
4 | COC(=O)[C@H](C)NC(=O)COc1nn(-c2ccnc(Cl)c2)c(-c2ccc(F)nc2)c1Br [III-18] | 0% | 0% | 0% | 0% | 20% | 20% | 0% |  | 0% |  | 20% | 0% | 0% | 0% | 0% |  |  |  | 80% |  | 
5 | COC(=O)[C@H](C)COC(=O)COc1nn(-c2ccnc(Cl)c2)c(-c2ccc(F)nc2)c1Br [III-17] | 0% | 0% | 0% | 10% | 20% | 20% | 0% |  | 20% |  |  | 0% | 20% |  | 20% | 90% |  |  | 80% |  | Post-emergence action against PHBPU in % ([13]; dosage 80 g/ha): 80%
6 | O=C(O)COc1nn(-c2ccncc2)c(-c2ccc(F)nc2)c1Br [III-09] | 20% | 0% | 0% | 0% | 0% | 0% | 0% | 0% | 10% | 10% | 0% |  |  | 0% |  | 80% | 80% |  |  | 80% | Post-emergence action against TRZAS in % ([21]; 320 g/ha): 0%
